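Each compound was tested at five concentrations against cells in 96-well plates for 48 hours. At the GI50, growth is halved. TGI: concentration producing complete growth inhibition.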
Experiments:
Test in all cases: NCI anticancer screen, dose series, 48 h
COLO 205 colon = test system: COLO 205 colon
PC-3 prostate = test system: PC-3 prostate
MDA-MB-435 = test system: MDA-MB-435
OVCAR-8 ovarian = test system: OVCAR-8 ovarian
NCI-H226 lung = test system: NCI-H226 lung
BT-549 breast = test system: BT-549 breast
KM12 colon = test system: KM12 colon
T-47D breast = test system: T-47D breast
MDA-MB-231 breast = test system: MDA-MB-231 breast
HOP-92 NSCLC = test system: HOP-92 NSCLC

Structure (SMILES) | TGI (COLO 205 colon) [µM] | TGI (PC-3 prostate) [µM] | TGI (MDA-MB-435) [µM] | TGI (OVCAR-8 ovarian) [µM] | TGI (NCI-H226 lung) [µM] | TGI (BT-549 breast) [µM] | TGI (KM12 colon) [µM] | TGI (T-47D breast) [µM] | TGI (MDA-MB-231 breast) [µM] | TGI (HOP-92 NSCLC) [µM] | GI50 (NCI-H226 lung) [µM]
COc1cc2c(cc1OCCCCCCCCN1C(=O)c3cccc4cccc(c34)C1=O)N=C[C@@H]1CCCN1C2=O | 21.7 | 27.6 | 51.7 | 57.8 | 46.8 | 35.1 | 52 | > 100 | 34 |  | 
N#Cc1c(N)nc2c(c1-c1ccc(Br)cc1)CSc1ccccc1-2 | 32.2 | 86.5 | 77.3 | > 100 | 85.6 | > 100 | > 100 | 58.2 | 51.6 | 50.2 | 
Cc1cnoc1NS(=O)(=O)c1ccc(Nc2nnc(/C=C/c3c(O)ccc4ccccc34)c(=O)n2N)cc1 |  |  | 76.3 | > 100 |  | 53.9 |  | 82 |  | > 100 | 
COc1ccc(C2c3cc4c(cc3OC(O)(CO)C2C(=O)O)OCO4)cc1 (centres undefined) (tested in a mixture with another compound) | > 100 |  |  | 48.5 | 47.7 |  | 67.2 |  |  | 41.7 | 
COc1cc([C@@H]2c3cc4c(cc3[C@@H](c3c(O)cc(O)c5c3O[C@H](c3ccc(O)c(O)c3)[C@H](OC(=O)c3cc(O)c(O)c(O)c3)C5)[C@H]3COC(=O)[C@H]23)OCO4)cc(OC)c1OC | 90 | > 77.8 | 7.23 | > 100 | 7.53 | > 100 | > 100 | > 100 | > 100 | > 100 | 
O=c1c2ccccc2[nH]c(=S)n1-c1ccc(N=Nc2cccc3cc(O)ccc23)cc1 | > 100 | > 100 | > 100 | > 100 | > 100 | > 100 | > 100 | > 100 | > 100 | > 100 | 
O=C1CC2(CCC(O)(c3cccs3)C(C(=O)c3cccs3)C2)C(=O)c2ccccc2N1 (centres undefined) | > 100 | > 100 | > 100 | > 100 | > 100 | > 100 |  | > 100 | > 100 | > 100 | 
O=C1c2ccccc2C(C2c3ccccc3C(=O)c3cc(Br)ccc32)c2ccc(Br)cc21 (centres undefined) | > 100 | > 100 | > 100 | > 100 | > 100 | > 100 | > 100 | > 100 | > 100 | > 100 | 
COC1CC(CC2CCC(C)C(C(C)C(=O)O)O2)OC2(OC(C)(C3CCC(C)(C4OC(C5OC(O)(CO)C(C)CC5C)CC4C)O3)CC2C)C1C (centres undefined) | 2.67 | 49 | 11.1 | 41.3 | 21.3 | 27.7 | 11.9 | 2.41 | 46 | 16.4 | 
CC(C)(C)[Si](C)(C)OCC1OC(n2cnc3c(N)ncnc32)CC1OS(C)(=O)=O (centres undefined) | > 100 | > 100 | > 100 | > 100 | > 100 | > 100 | > 100 | > 100 | > 100 | 17.3 | 
Nc1ccc(-c2nc3cc(F)ccc3s2)cc1CO | > 100 | > 76.1 | > 100 | > 100 | 0.409 | 51.2 | > 100 | > 100 | > 70 | 43.5 | 
CCOC(=O)C(=O)NCCCN1CCOCC1 | > 100 |  |  | > 100 | > 100 |  | > 100 |  |  | > 100 | 
CCCSc1ccc2[nH]c(N3C(=O)/C(=C/c4cc(OC)c(OC)c(OC)c4)N=C3c3ccccc3)cc2c1 | > 30.2 | > 37.5 | 16 | > 37.5 | > 37.5 | 37.4 | > 37.5 | 37 | > 37.5 | 36.6 | 
COC(=S)OC1CC(n2cnc3c(N)ncnc32)OC1CO[Si](C)(C)C(C)(C)C (centres undefined) | 39.8 | 44.1 | 42.1 | 69.5 | 59.2 | 64.1 | 89.8 | 88.8 | 39.9 | 59.3 | 
COC(=O)C[C@H](COCc1ccccc1)NC(=O)C[C@H](COCc1ccccc1)NC(=O)OC(C)(C)C | > 100 | 77.6 | > 100 | 61.7 | > 100 | 51.9 | > 100 | 98.7 | > 100 | 65.5 | 
O=C(O)C(O)C(O)C(O)C(=O)CO (centres undefined) | > 100 | > 100 | > 100 | > 100 | > 100 | > 100 | > 100 | > 100 | > 100 | > 100 | 
O=C1/C(=C\c2ccc(F)cc2)CCOc2c1ccc1ccccc21 | > 100 | > 100 | 74.3 | 35.2 | > 100 | 77.3 | 31.5 | > 100 | > 47.7 | 71.5 | 33.6
Cc1ccccc1NC(=O)CC(=O)N1N=C(N2c3ccccc3Sc3ccccc32)CC1c1ccccc1 (centres undefined) | > 100 |  |  | > 100 | > 100 |  | > 100 |  |  | > 100 | 
C/C(N=Nc1nc2ccccc2[nH]1)=C1/C=CC=CN1O | > 100 | > 100 | > 100 | > 100 | > 100 | > 100 | > 100 | > 100 | > 100 | > 100 | 
